# Data: paper PMC7400788, “RAF dimer inhibition enhances the antitumor activity of MEK inhibitors in K‐RAS mutant tumors” (Molecular Oncology, 2020)
# Read-outs that look alike come from different tables or passages of the source.
# Legend:
# WT B‐RAF [1] = molecular target: T1, WT B‐RAF (Homo sapiens, UniProt P15056); experiment: TR-FRET kinase assay, MEK1 (K97R) substrate; format: biochemical
# T1 construct: gene BRAF; overexpressed in HEK293 cells, immunoprecipitated
# EGFR = EGFR (Homo sapiens, UniProt P00533); experiment: biochemical kinase assay (details not told)
# Description: biochemical kinase assay (details not told) on EGFR | Biochemical activity of compound C against WT B‐RAF, B‐RAF^V600E, C‐RAF, and EGFR
# WT B‐RAF [2] = molecular target: T2, WT B‐RAF (Homo sapiens, UniProt P15056, V600E); experiment: TR-FRET kinase assay, MEK1 (K97R) substrate; format: biochemical
# T2 construct: gene BRAF; overexpressed in HEK293 cells, immunoprecipitated
# WT C‐RAF = molecular target: T3, WT C‐RAF (Homo sapiens, UniProt P04049); experiment: TR-FRET kinase assay, MEK1 (K97R) substrate; format: biochemical
# T3 construct: gene RAF1; overexpressed in HEK293 cells, immunoprecipitated
# [3] = 1 mM ATP, 1 h pre-incubation, room temperature, time-dependent inhibition (6 h and 24 h pre-incubation also tested), read-out: Compound C IC50 (nM) / 1 h
# [4] = read-out: BGB-283 IC50 (nM) / 1 h
# T1 sequence (P15056 2-766): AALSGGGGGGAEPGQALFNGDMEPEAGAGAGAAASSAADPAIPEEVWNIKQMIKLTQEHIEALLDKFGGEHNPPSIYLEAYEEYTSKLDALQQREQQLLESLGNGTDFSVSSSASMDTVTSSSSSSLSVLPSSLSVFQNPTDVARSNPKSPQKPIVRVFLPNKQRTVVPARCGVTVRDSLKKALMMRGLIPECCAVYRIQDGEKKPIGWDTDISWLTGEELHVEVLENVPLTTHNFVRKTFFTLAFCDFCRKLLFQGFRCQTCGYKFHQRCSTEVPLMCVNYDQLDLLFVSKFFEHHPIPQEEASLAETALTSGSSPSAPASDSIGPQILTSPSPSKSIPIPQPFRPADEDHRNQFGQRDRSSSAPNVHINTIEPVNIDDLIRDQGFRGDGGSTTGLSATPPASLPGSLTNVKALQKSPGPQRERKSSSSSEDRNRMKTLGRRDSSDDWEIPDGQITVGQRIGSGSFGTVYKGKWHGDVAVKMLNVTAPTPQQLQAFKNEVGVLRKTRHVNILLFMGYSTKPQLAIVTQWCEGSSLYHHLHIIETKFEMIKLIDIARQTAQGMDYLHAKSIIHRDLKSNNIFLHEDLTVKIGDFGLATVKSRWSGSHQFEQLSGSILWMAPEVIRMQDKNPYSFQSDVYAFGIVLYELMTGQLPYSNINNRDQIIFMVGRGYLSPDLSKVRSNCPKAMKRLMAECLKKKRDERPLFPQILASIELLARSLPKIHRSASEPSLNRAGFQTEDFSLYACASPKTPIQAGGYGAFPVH
# T3 sequence (P04049 whole entry): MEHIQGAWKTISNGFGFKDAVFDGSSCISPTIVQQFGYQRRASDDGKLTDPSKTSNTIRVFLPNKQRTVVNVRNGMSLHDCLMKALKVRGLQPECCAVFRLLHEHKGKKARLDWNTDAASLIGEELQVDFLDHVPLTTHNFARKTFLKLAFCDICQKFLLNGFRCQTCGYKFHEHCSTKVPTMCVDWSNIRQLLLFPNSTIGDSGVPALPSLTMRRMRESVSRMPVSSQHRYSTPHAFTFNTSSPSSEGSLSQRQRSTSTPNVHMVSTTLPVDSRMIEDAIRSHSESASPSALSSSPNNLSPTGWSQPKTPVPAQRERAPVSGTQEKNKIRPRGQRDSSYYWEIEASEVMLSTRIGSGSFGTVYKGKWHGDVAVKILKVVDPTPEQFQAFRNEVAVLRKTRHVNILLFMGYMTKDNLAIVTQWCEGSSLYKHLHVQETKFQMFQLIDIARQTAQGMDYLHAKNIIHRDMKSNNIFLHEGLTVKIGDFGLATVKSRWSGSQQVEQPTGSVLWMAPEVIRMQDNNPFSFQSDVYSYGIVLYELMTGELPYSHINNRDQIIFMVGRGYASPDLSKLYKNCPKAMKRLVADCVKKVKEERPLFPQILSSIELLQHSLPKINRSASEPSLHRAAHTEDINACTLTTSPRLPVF
# T2 sequence (P15056 2-766 V600E): as the sequence (P15056 2-766) above, with V599E counted along it
# Sequence of EGFR (P00533 25-1210): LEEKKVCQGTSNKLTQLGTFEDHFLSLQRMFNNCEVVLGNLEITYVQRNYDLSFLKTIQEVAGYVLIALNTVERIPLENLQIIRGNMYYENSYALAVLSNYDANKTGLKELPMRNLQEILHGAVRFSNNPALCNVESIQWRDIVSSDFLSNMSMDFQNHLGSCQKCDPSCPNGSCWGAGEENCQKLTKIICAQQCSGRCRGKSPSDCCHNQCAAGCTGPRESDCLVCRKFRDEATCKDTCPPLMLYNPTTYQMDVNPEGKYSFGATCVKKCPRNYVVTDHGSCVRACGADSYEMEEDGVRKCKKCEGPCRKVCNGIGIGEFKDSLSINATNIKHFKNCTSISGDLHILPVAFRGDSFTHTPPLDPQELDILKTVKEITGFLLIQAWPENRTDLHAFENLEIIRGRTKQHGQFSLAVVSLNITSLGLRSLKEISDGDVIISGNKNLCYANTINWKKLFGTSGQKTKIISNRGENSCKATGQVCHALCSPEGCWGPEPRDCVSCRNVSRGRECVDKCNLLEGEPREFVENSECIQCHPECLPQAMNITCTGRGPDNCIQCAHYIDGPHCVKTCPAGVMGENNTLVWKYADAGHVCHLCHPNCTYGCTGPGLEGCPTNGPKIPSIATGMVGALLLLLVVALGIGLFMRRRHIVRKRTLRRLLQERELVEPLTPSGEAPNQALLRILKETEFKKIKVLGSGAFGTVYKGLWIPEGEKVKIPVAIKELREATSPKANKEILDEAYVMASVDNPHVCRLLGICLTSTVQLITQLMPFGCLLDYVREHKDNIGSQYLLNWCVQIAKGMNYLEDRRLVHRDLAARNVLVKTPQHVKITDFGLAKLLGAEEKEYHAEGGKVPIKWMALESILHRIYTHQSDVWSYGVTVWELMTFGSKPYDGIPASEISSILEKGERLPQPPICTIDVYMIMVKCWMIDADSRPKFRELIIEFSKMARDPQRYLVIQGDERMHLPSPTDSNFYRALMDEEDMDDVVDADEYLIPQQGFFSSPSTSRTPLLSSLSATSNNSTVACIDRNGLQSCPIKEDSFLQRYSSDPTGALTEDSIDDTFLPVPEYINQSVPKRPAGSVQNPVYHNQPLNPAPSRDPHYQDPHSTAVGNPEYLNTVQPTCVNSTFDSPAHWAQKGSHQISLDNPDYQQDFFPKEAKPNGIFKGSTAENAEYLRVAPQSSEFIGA
structure (smiles),measurement,setting,value
c1cc(-c2cnn3cc(-c4ccc(OCCN5CCCCC5)cc4)cnc23)ccn1 [compound C],IC50,WT B‐RAF [1]; [3],24 nM
same,IC50,EGFR,1270 nM
same,IC50,WT B‐RAF [2]; [3],1.6 nM
same,IC50,WT C‐RAF; [3],2.4 nM
O=C1CCc2c(Oc3ccc4c(c3)[C@@H]3[C@H](O4)[C@H]3c3nc4ccc(C(F)(F)F)cc4[nH]3)ccnc2N1 [BGB‐283],IC50,WT B‐RAF [1]; [4],2310 nM
same,IC50,WT B‐RAF [2]; [4],49 nM
same,IC50,WT C‐RAF; [4],122 nM
